Marks after values point to notes of the source that are not given here.
Tested on: acute myocardial infarction in rats
Experiment: Effect on acute myocardial infarction in rats (ligation of left anterior descending coronary artery)
Format: in vivo, Wistar rats
Description: Test 1 Effect of Pseudoprotogracillin (□) on Acute Myocardial Infarction in Rats:
Pseudoprotogracillin (□) obtained in example 4 was applied in relevant pharmacological tests as follows:
Wistar rats, each weighing 180˜220 g, were randomized into 3 groups, namely control group, pseudoprotogracillin group of high dose and pseudoprotogracillin group of low dose, each of which had 12 rats. The rats in the control group were administered by gastric infusion of distilled water. The other rats in test groups were administered by gastric infusion of the relevant medicinal liquid (prepared with distilled water), according to the high dose (3 mg/kg) or low dose (1.5 mg/kg) listed in following table for each group, respectively. Infusion was performed once a day and continued for one week. 1 hour after last administration, urethane of 1 g/kg was given to the rats for abdominal anesthesia. The animal was fixed on its back and its skin was cut open along the midline of its sternum, along the left edge of which an incision was made for the heart to be squzeezed out quickly. Ligation was immediately made at the root of the left anterior descending branch of its coronary artery before putting the heart back into its thorax, which was then closed by suture and spontaneous breathing was restored. The test was ended 3 hours after ligation and the heart was sliced transversely below the line of ligation. 5 slices were blue-stained with nitrotetrazolium and an multiple color pathological analyzer (MPIAS-500) was applied to measure the areas of normal myocardium and infarct myocardium at a fixed imaging distance and to observe the degree of myocardial infarction.

[1] = High dose 3 mg/kg, gastric infusion once a day for one week, 3 hours after ligation, X ± s
[2] = Low dose 1.5 mg/kg, gastric infusion once a day for one week, 3 hours after ligation, X ± s

**Q.** How did the “Percentage of infarct area to the heart” value [1] turn out when “26-0-β-D-glucopyranosyl-3β, 26 glyco-25 (R)-Δ^5,20(22)-diene-furo-3-O-[α-L-Rhamnop yranosyl(1→2)]-[β-D-glucopyranosyl(1→3)]-β-D-glucopyranoside [pseudoprotogracillin (II)]” was run?
**A.** 20.74 ± 1.9 %

**Q.** What about the “Percentage of infarct area to ventricle” value [1] of the same substance?
**A.** 24.5 ± 2.6 %

**Q.** What about the Weight of infraction [1] of the same substance?
**A.** 0.227 ± 0.032 g

**Q.** And the Area of infraction [2]?
**A.** 91.3 ± 11.49* mm^2

**Q.** And the “Percentage of infarct area to the heart” value [2]?
**A.** 25.2 ± 2.3 %

**Q.** What about the “Percentage of infarct area to ventricle” value [2] of the same substance?
**A.** 28.1 ± 1.9 %

**Q.** What about the Weight of infraction [2] of the same substance?
**A.** 0.241 ± 0.045 g

**Q.** What about the “Action on myocardium (in words)” value (high and low dose vs control group) of the same substance?
**A.** obvious action to protect myocardium

From patent US20070254847A1, “Pharmaceutical Composition Containing Steroidal Saponins, the Preparation Method and Use Thereof” (priority 2004, published 2007)
